{"source": "paper PMC8107043", "about": "(Bioorganic & Medicinal Chemistry Letters, 2021)", "key": {"SARS-CoV-2 PLpro": {"target": "SARS-CoV-2 PLpro (Severe acute respiratory syndrome coronavirus 2, UniProt P0DTD1)", "assay": "Papain-like protease", "type": "biochemical", "conditions": "read-out: Percent inhibition against PLpro, 100 µg/mL, mean ± SEM of 3 replicas"}, "[1]": {"tested_on": "normal human fibroblast cells (HDF)", "assay": "Cell viability MTT assay", "type": "cell-based", "conditions": "in words"}, "SARS-CoV-2 M^pro": {"target": "SARS-CoV-2 M^pro (Severe acute respiratory syndrome coronavirus 2, UniProt P0DTD1)", "type": "biochemical", "conditions": "read-out: IC50 against M^pro; dose-response 25-200 µg/mL"}, "SARS-CoV-2": {"tested_on": "SARS-CoV-2", "conditions": "in words; cited from earlier work"}}, "data": [{"smiles": "CCOC(=O)C(Cc1c[nH]c2ccccc12)NC(=O)CCC(=O)Nc1ccc(S(N)(=O)=O)cc1", "note": "(stereo not drawn) [Compound 2]", "values": [{"measurement": "inhibition at 100 µg/mL", "setting": "SARS-CoV-2 PLpro", "result": "≤ 40", "unit": "%"}]}, {"smiles": "COc1cc(C(NC2=NC(=O)C(CC(=O)Nc3ccc(C(=O)O)cc3)S2)c2c(O)[nH]c(=O)[nH]c2=O)ccc1O", "note": "(stereo not drawn) [Compound 7]", "values": [{"measurement": "toxicity on mammalian cells", "setting": "[1]", "result": "no toxicity"}, {"measurement": "IC50", "setting": "SARS-CoV-2 M^pro", "result": 450, "unit": "nM"}]}, {"smiles": "O=C(CSc1nnc2c(n1)[nH]c1ccccc12)Nc1cccc(S(=O)(=O)N2CCOCC2)c1", "note": "[Compound 8]", "values": [{"measurement": "inhibition at 100 µg/mL", "setting": "SARS-CoV-2 PLpro", "result": "≤ 40", "unit": "%"}]}, {"smiles": "COc1ccc(/C=C\\C(=O)NC(=S)Nc2ccc(S(=O)(=O)NC(N)=O)cc2)cc1OC", "note": "[Compound 9]", "values": [{"measurement": "inhibition at 100 µg/mL", "setting": "SARS-CoV-2 PLpro", "result": "≤ 40", "unit": "%"}]}, {"smiles": "COc1cc(CC(C)NCc2cc(NC(=O)c3ccccn3)cc(C(=O)N(C)C)c2)ccc1O", "note": "(stereo not drawn) [Compound 12]", "values": [{"measurement": "inhibition at 100 µg/mL", "setting": "SARS-CoV-2 PLpro", "result": "≤ 40", "unit": "%"}]}, {"smiles": "N=C(N/N=C/c1ccccc1O)c1nonc1NCNc1nonc1C(=N)N/N=C/c1ccccc1O", "note": "[Compound 13]", "values": [{"measurement": "toxicity on mammalian cells", "setting": "[1]", "result": "no toxicity"}]}, {"smiles": "Cc1cccc(C)c1OCC(=O)N[C@@H](Cc1ccccc1)[C@@H](O)C[C@H](Cc1ccccc1)NC(=O)[C@H](C(C)C)N1CCCNC1=O", "note": "[lopinavir]", "values": [{"measurement": "outcome in clinical trial as anti-SARS-CoV-2 inhibitors", "setting": "SARS-CoV-2", "result": "failed in the clinical trial"}]}, {"smiles": "CC(C)c1nc(CN(C)C(=O)N[C@H](C(=O)N[C@@H](Cc2ccccc2)C[C@H](O)[C@H](Cc2ccccc2)NC(=O)OCc2cncs2)C(C)C)cs1", "note": "[ritonavir]", "values": [{"measurement": "outcome in clinical trial as anti-SARS-CoV-2 inhibitors", "setting": "SARS-CoV-2", "result": "failed in the clinical trial"}]}]}
